The text below walks through data of US20150045610A1, “METHOD OF MODIFYING SPERMATOGENESIS, SPERMIOGENESIS AND/OR FERTILITY IN MAMMALS” (Monell Chemical Senses Center, priority 2012, published 2015).

Assay [1] has as its system sperm. In words: sperm motility in vitro. It is filed as cell-based, mouse. The settings on record: sperm of WT and mutant mice, clofibric acid in media (2 mM elsewhere in the source). The source says:
We observed spermatozoa after clofibrate treatment represent cells that were able to escape the inhibition of clofibric acid, most likely due to very fast clearance and fluctuating levels in rodents. This allows some tubular cells to complete the developmental cycle. Therefore, we measured sperm concentration as an indicator of efficiency of the pharmacological block and to be able to determine the concentration that results in effective sterility. We analyzed testicular morphology, sperm production, sperm motility and sperm function in in vitro fertilization after feeding these animals with the lipid lowering drug clofibrate. We tested an acute inhibition of sperm motility and function in vitro by incubating sperm from the engineered mice (mGus−/−, mT1R3−/−, hmT1R3+) in solutions containing clofibric acid or other T1R3 inhibitors. The concentration used was similar to the one used in human treatment with fibrates (˜0.03 g/kg weight, for 3 weeks). We tested sperm motility and function in vitro of the Gα-gustducin KO mice (missing only the Gα-gustducin gene (mGus−/−)) after blocking T1R3 receptors with the rodent specific inhibitor gurmarin (3 mg/ml).
We evaluated the residual sperm that was produced by the line 7c mice in more detail. […] From all the above results, the combined lack of T1R3 and α-gustducin exerted its effect primarily at the level of developing spermatocytes in testis.

The target of assay [2] is T1, human T1R3 receptor (Homo sapiens, UniProt Q7RTX0).
T1 construct: expressed in transfected cells
T1 sequence (Q7RTX0 21-852): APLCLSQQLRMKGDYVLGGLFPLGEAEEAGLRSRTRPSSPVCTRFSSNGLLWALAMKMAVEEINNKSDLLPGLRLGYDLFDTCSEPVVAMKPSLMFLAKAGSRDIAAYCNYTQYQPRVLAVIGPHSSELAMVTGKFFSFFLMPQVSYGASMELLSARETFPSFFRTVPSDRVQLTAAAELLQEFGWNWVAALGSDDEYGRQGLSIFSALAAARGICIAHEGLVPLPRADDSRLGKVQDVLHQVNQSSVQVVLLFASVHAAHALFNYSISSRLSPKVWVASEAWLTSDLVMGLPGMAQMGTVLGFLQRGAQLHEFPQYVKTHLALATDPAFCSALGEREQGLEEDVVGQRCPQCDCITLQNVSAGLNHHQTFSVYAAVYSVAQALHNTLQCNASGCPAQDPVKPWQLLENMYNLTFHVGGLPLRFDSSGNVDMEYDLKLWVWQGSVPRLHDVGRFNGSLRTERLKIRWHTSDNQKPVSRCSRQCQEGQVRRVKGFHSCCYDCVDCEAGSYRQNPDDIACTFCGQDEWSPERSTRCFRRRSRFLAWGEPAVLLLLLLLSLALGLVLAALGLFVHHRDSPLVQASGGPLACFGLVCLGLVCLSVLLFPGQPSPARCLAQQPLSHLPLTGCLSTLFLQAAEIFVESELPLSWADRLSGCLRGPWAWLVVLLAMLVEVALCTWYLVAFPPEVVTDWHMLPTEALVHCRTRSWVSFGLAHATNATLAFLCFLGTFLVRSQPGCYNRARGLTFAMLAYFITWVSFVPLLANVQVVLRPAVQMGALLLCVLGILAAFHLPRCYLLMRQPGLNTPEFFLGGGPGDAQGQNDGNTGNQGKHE
T1 sequence (Q8TE23 20-839 partner): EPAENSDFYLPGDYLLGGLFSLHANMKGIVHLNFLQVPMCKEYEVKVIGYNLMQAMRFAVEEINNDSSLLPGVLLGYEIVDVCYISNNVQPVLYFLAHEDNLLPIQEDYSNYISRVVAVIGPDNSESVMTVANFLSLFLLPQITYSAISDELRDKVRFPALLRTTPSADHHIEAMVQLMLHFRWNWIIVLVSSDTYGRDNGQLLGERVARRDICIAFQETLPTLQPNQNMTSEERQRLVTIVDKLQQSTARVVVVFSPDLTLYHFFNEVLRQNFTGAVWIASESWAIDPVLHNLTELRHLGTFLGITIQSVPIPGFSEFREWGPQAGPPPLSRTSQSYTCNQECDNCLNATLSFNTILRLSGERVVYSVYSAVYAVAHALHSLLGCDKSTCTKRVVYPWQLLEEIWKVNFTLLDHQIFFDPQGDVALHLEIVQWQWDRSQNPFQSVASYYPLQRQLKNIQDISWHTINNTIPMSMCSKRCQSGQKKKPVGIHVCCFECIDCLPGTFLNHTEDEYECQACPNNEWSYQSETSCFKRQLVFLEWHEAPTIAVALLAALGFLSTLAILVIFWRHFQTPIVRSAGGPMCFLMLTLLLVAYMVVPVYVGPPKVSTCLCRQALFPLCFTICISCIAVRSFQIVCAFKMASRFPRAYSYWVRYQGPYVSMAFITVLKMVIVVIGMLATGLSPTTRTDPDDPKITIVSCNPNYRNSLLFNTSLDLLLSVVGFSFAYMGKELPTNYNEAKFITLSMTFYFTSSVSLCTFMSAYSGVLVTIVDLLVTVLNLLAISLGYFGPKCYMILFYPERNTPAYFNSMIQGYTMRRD
The settings on record: cited from earlier work.

“Also recorded” adds a separate entry of the source.

On to `CC(C)(Oc1ccc(Cl)cc1)C(=O)O` [clofibric acid], for which the sperm motility result in assay [1] is given as “no differences; also recorded: not affected”. Further, in assay [2], the “T1R3 inhibition compared with PPAR-α activation” value was “comparable to their activation of PPAR-α”.
